Measured values: patent EP0347733A1, “Optically active hydantoin derivatives” (Eisai Co., Ltd., priority 1988, dated 1989)

Tests used:
mice = experiment: acute toxicity tests with mice; type: in vivo
Experimental: In the acute toxicity tests with mice, LD₅₀ of the d-compound was 700 mg/kg and that of the ℓ-compound was 200 mg/kg.

[1] = test system: aconitine-induced arrhythmia; experiment: aconitine-induced arrhythmia model of mice; type: in vivo; conditions: orally administered one hour before intraperitoneal injection of 0.1 mg/kg of aconitine, tachycardia and frequency of ventricular extrasystole from the electrocardiogram, 60 min
Experimental: The antiarrythmic activity of the compound of the present invention was examined with aconitine-induced arrhythmia model of mice. When 0.1 mg/kg of aconitine is intraperitoneally injected, usually ventricular tachycardia occurs within 20 minutes. The compound of the present invention (d- or ℓ-compound) was orally administered one hour before the intraperitoneal injection of 0.1 mg/kg of aconitine and the tachycardia and the frequency of ventricular extrasystole were determined from the electrocardiogram to determine the antiarrhythmic activity (ED₅₀). The ED₅₀ of the d-compound was 40 mg/kg and that of the ℓ-compound was 5 mg/kg.

myocardial contraction = experiment: influence on myocardial contraction; conditions: amount several times as much as the antiarrhythmically effective amount
Description: One of the pharmacological features of the compounds of the present invention is that they inhibit myocardial contraction only very slightly. This is a quite desirable property when they are used as the antiarrhythmic agents.

## CC1(C)CC2(NC(=O)N(CCCN3CCC(O)CC3)C2=O)c2cc(Cl)ccc2O1 (single isomer, unassigned) [d-compound, d-6-Chloro-2,2-dimethyl-1′-[3-(4-hydroxypiperidino)propyl]spiro[chroman-4,4′-imidazolidine]-2′,5′-dione]
mice
  LD₅₀: 700 mg/kg
[1]
  antiarrhythmic activity (ED₅₀): 40 mg/kg

## CC1(C)CC2(NC(=O)N(CCCN3CCC(O)CC3)C2=O)c2cc(Cl)ccc2O1 (single isomer, unassigned) [ℓ-compound, ℓ-6-Chloro-2,2-dimethyl-1′-[3-(4-hydroxypiperidino)propyl]spiro[chroman-4,4′-imidazolidine]-2′,5′-dione]
mice
  LD₅₀: 200 mg/kg
[1]
  antiarrhythmic activity (ED₅₀): 5 mg/kg

## CC(C)N(CCC(C(N)=O)(c1ccccc1)c1ccccn1)C(C)C (stereo not drawn) [disopyramide]
Myocardial contraction
  influence on the myocardial contraction: reduce myocardial contraction

## C=C[C@H]1C[N@@]2CC[C@H]1C[C@@H]2[C@@H](O)c1ccnc2ccc(OC)cc12 [quinidine]
Myocardial contraction
  influence on the myocardial contraction: reduce myocardial contraction
